Source: the supplement of paper PMC11368000

Legend:
Conditions in all cases: exposure time: 90 min
1516 [1] = donor line of iPSC-derived cardiomyocytes; experiment: POD (EC05) for decrease in beat frequency (negative chronotrope) vs vehicle; higher = less potent (higher point of departure)
Experimental: (§1)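 Human iPSC-derived cardiomyocytes from 16 donors were exposed for 90 min at 37 °C to each PFAS at 0.1, 1, 10 and 100 µM in 0.5% DMSO, 384-well plates. Kinetic Ca2+ flux (FLIPR) and Hoechst nuclei counts were normalised to vehicle wells and fitted with a hierarchical Bayesian Hill model to give donor-specific PODs: EC05 for beat-rate increase or decrease and for decay-to-rise ratio increase (QT proxy), EC95 for peak-frequency loss (asystole), EC10 for total cell number loss. 0.03 µM is the lower bound.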

1531 [2] = donor line of iPSC-derived cardiomyocytes; experiment: as above
Experimental: as §1

1535 = donor line of iPSC-derived cardiomyocytes; experiment: as above
Experimental: as §1

1518 [3] = donor line of iPSC-derived cardiomyocytes; experiment: as above
Experimental: as §1

1118 [4] = donor line of iPSC-derived cardiomyocytes; experiment: as above
Experimental: as §1

20032 = donor line of iPSC-derived cardiomyocytes; experiment: as above
Experimental: as §1

11235 = donor line of iPSC-derived cardiomyocytes; experiment: as above
Experimental: as §1

1368 = donor line of iPSC-derived cardiomyocytes; experiment: as above
Experimental: as §1

30171 = donor line of iPSC-derived cardiomyocytes; experiment: as above
Experimental: as §1

1309 [5] = donor line of iPSC-derived cardiomyocytes; experiment: as above
Experimental: as §1

30145 = donor line of iPSC-derived cardiomyocytes; experiment: as above
Experimental: as §1

1565 [6] = donor line of iPSC-derived cardiomyocytes; experiment: as above
Experimental: as §1

20084 = donor line of iPSC-derived cardiomyocytes; experiment: as above
Experimental: as §1

1516 [7] = experiment: POD (EC95) for loss of peak frequency (asystole) vs vehicle; higher = less potent (higher point of departure)
Procedure, shortened: (§2)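 Ca2+ flux in human iPSC-derived cardiomyocytes from 16 donors was recorded on a FLIPR Tetra for 100 s before and after a 90 min exposure at 37 °C to 0.1, 1, 10 and 100 µM (final, 0.5% DMSO). Donor-specific points of departure came from hierarchical Bayesian Hill fits to vehicle-normalised beat frequency, decay-to-rise ratio or peak frequency. A 5% change served as threshold, except for peak frequency, where it was a 95% loss.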

1531 [8] = experiment: as above
Procedure, shortened: as §2

1518 [9] = experiment: as above
Procedure, shortened: as §2

1118 [10] = experiment: as above
Procedure, shortened: as §2

1392 = donor line of iPSC-derived cardiomyocytes; experiment: as above
Procedure, shortened: as §2

1309 [11] = experiment: as above
Procedure, shortened: as §2

1565 [12] = experiment: as above
Procedure, shortened: as §2

Compound | POD vs vehicle 1516 [1] | POD vs vehicle 1531 [2] | POD vs vehicle 1535 | POD vs vehicle 1518 [3] | POD vs vehicle 1118 [4] | POD vs vehicle 20032 | POD vs vehicle 11235 | POD vs vehicle 1368 | POD vs vehicle 30171 | POD vs vehicle 1309 [5] | POD vs vehicle 30145 | POD vs vehicle 1565 [6] | POD vs vehicle 20084 | POD vs vehicle 1516 [7] | POD vs vehicle 1531 [8] | POD vs vehicle 1518 [9] | POD vs vehicle 1118 [10] | POD vs vehicle 1392 | POD vs vehicle 1309 [11] | POD vs vehicle 1565 [12]
O=C(O)C(F)(F)C(F)(F)F [Perfluoropropanoic_acid] | > 100 µM | > 100 µM | > 100 µM | > 100 µM | > 100 µM | > 100 µM | > 100 µM | > 100 µM | > 100 µM | > 100 µM | > 100 µM | > 100 µM | > 100 µM | > 100 µM | > 100 µM | > 100 µM | > 100 µM | > 100 µM | > 100 µM | > 100 µM
O=C(O)C(F)(F)C(F)(F)C(F)(F)OC(F)(F)F [Perfluoro(4-methoxybutanoic)_acid] | > 100 µM | > 100 µM | > 100 µM | > 100 µM | > 100 µM | > 100 µM | > 100 µM | > 100 µM | > 100 µM | > 100 µM | > 100 µM | > 100 µM | > 100 µM | > 100 µM | > 100 µM | > 100 µM | > 100 µM | > 100 µM | > 100 µM | > 100 µM
O=S(=O)(O)CCC(F)(F)C(F)(F)C(F)(F)C(F)(F)C(F)(F)C(F)(F)F [6:2 Fluorotelomer sulfonic acid] | 33.5 µM | 25.1 µM | > 100 µM | 42.6 µM | 12.8 µM | > 100 µM | 6.84 µM | > 100 µM | 24.5 µM | > 100 µM | > 100 µM | 39.6 µM | > 100 µM | > 100 µM | > 100 µM | > 100 µM | > 100 µM | > 100 µM | > 100 µM | > 100 µM
O=C(O)CCC(F)(F)C(F)(F)C(F)(F)C(F)(F)C(F)(F)C(F)(F)C(F)(F)F [3-Perfluoroheptylpropanoic_acid] | 56.9 µM | 80.7 µM | > 100 µM | > 100 µM | 13.8 µM | > 100 µM | 20.2 µM | > 100 µM | 24.9 µM | > 100 µM | > 100 µM | > 100 µM | > 100 µM | > 100 µM | > 100 µM | > 100 µM | 59.8 µM | > 100 µM | > 100 µM | > 100 µM
O=C(O)C=CC(F)(C(F)(F)F)C(F)(F)F [3-(Perfluoroisopropyl)-2-propenoic_acid] | > 100 µM | > 100 µM | > 100 µM | > 100 µM | > 100 µM | > 100 µM | > 100 µM | > 100 µM | > 100 µM | > 100 µM | > 100 µM | > 100 µM | > 100 µM | > 100 µM | > 100 µM | > 100 µM | > 100 µM | > 100 µM | > 100 µM | > 100 µM
OCC(F)(F)C(F)(F)C(F)(F)C(F)(F)C(F)(F)C(F)(F)F [6:1 Fluorotelomer alcohol] | > 100 µM | > 100 µM | > 100 µM | > 100 µM | 0.554 µM | > 100 µM | 21.5 µM | 74.9 µM | 24.3 µM | > 100 µM | > 100 µM | > 100 µM | > 100 µM | > 100 µM | > 100 µM | > 100 µM | 1.75 µM | > 100 µM | > 100 µM | > 100 µM
NS(=O)(=O)C(F)(F)C(F)(F)C(F)(F)C(F)(F)C(F)(F)C(F)(F)F [Perfluorohexanesulfonamide] | 14.3 µM | 6.44 µM | 12.6 µM | 32.8 µM | 1.33 µM | 13.4 µM | 0.693 µM | > 100 µM | 7.7 µM | 14.7 µM | 34.9 µM | 92 µM | 54.4 µM | 77.8 µM | 40.8 µM | > 100 µM | 7.84 µM | > 100 µM | 90.8 µM | > 100 µM
OCC(F)(F)C(F)(F)C(F)(F)C(F)(F)C(F)(F)C(F)F [Dodecafluoroheptanol] | 18.9 µM | 15.7 µM | 18.4 µM | 14.9 µM | 1.39 µM | 18.3 µM | 19.2 µM | 13.7 µM | 20.1 µM | 19.4 µM | 19.4 µM | 20.3 µM | 19.3 µM | 48.2 µM | 42.6 µM | 38.1 µM | 7.54 µM | 45 µM | 50.3 µM | 50.6 µM
O=C(O)C(F)(F)C(F)(F)C(F)(F)C(F)(F)C(F)(F)C(F)(F)C(F)(F)C(F)(F)C(F)(F)F [Perfluorodecanoic_acid] | 14.9 µM | 64.4 µM | 66.5 µM | > 100 µM | 2.31 µM | > 100 µM | 15.5 µM | > 100 µM | 7.83 µM | 56.2 µM | > 100 µM | > 100 µM | 77.6 µM | 68.8 µM | > 100 µM | > 100 µM | 9.5 µM | > 100 µM | > 100 µM | > 100 µM
O=C(O)C(F)(F)C(F)(F)C(F)(F)C(F)(F)C(F)(F)F [Perfluorohexanoic_acid] | > 100 µM | > 100 µM | > 100 µM | > 100 µM | > 100 µM | > 100 µM | > 100 µM | > 100 µM | > 100 µM | > 100 µM | > 100 µM | > 100 µM | > 100 µM | > 100 µM | > 100 µM | > 100 µM | > 100 µM | > 100 µM | > 100 µM | > 100 µM
